Experimental data reported in patent publication US20140113877A1, “NOVEL 3,4,4A,10B-TETRAHYDRO-1H-THIOPYRANO[4,3-C] ISOQUINOLINE COMPOUNDS” (Takeda GmbH, priority 2011, published 2014).

Assays:
PDE4B1 = target: T1, PDE4B1 (Homo sapiens, UniProt Q07343); experiment: Inhibition of PDE4B1 activity (SPA, [3H]cAMP); format: biochemical; conditions: recombinant PDE4B1, 0.5 μM cAMP; binned: below 8 / between 8 and 9; read-out: PDE4B1 inhibitory values measured as −logIC50 (converted)
T1 construct: made in house; host or cells: SF21 insect cells (baculovirus; virus prepared in SF9 cells)
Experimental: The PDE4B1 (GB no. L20966) was a gift of Prof. M. Conti (Stanford University, USA). It was amplified from the original plasmid (pCMV5) via PCR with primers Rb18 (5′-[…]-3′) and Rb10 (5′-[…]-3′) and cloned into the pCR-Bac vector (Invitrogen, Groningen, NL).
The recombinant baculovirus was prepared by means of homologous recombination in SF9 insect cells. The expression plasmids were cotransfected with Baculo-Gold DNA (Pharmingen, Hamburg) using a standard protocol (Pharmingen, Hamburg). Wt virus-free recombinant virus supernatants were selected using plaque assay methods. After that, high-titre virus supernatants were prepared by amplifying 3 times. PDE4B1 was expressed in SF21 cells by infecting 2×10^6 cells/ml with an MOI (multiplicity of infection) between 1 and 10 in the serum-free SF900 medium (GIBCO Life Technologies, Karlsruhe, Germany). The cells were cultured at 28° C. for 48-72 hours, after which they were pelleted for 5-10 min at 1000×g and 4° C.
The SF21 insect cells were resuspended, at a concentration of approx. 10^7 cells/ml, in ice-cold (4° C.) homogenization buffer (20 mM Tris, pH 8.2, containing the following additions: 140 mM NaCl, 3.8 mM KCl, 1 mM EGTA, 1 mM MgCl2, 10 mM β-mercaptoethanol, 2 mM benzamidine, 0.4 mM Pefablock, 10 μM leupeptin, 10 μM pepstatin A, 5 μM trypsin inhibitor) and disrupted by ultrasonication. The homogenate was then centrifuged for 10 min at 1000×g and the supernatant was stored at −80° C. until subsequent use (see below). The protein content was determined by the Bradford method (BioRad, Munich) using BSA (Bovine serum albumin) as the standard.
PDE4B1 activities were measured in a 96-well platform using SPA (scintillation proximity assay) yttrium silicate beads (RPNQ1050 from GE Healthcare). In a first step the PDE activity operated hydrolysis of either [^3H] cAMP (substrate) into [^3H] 5′AMP. In a second step substrate and product were distinguished following addition of SPA yttrium silicate beads. Indeed, in the presence of zinc sulphate the linear [^3H] […] Close proximity of bound [^3H] […] The test volume was 100 μl and finally contained 20 mM Tris buffer (pH 7.4), 0.1 mg/ml of BSA, 5 mM Mg^2+, 0.5 μM cAMP (including about 50,000 cpm of [3H]cAMP) as substrate, 1 μl of the respective substance dilution in DMSO and sufficient recombinant PDE (1000×g supernatant, see above) to ensure that 10-20% of the cAMP was converted under the said experimental conditions. […] After a preincubation of 5 min at 37° C., the reaction was commenced by adding the substrate (cAMP) and the assays were incubated for a further 15 min. Reactions were terminated by adding SPA beads (50 μl). In agreement with the manufacturer's instructions, the SPA beads had previously been resuspended in water, but were then diluted 1:3 (v/v) in water. This diluted solution further contained 3 mM IBMX (isobutylmethylxanthine) to ensure a complete block of PDE activity. Once the beads were sedimented (>30 min), the MTP's (microtiter plate) were analyzed in commercially available luminescence detection devices. The corresponding IC50 values of the compounds for inhibition of PDE4B1 activity were determined from the concentration-effect curves by means of non-linear regression.
For the following compounds PDE4B1 inhibitory values [measured as −logIC50 (mol/l)] below 8 and between 8 and 9 have been determined. The numbers of the compounds correspond to the numbers of the examples.

human PDE5 = target: T2, human PDE5 (Homo sapiens, UniProt O76074); experiment: Inhibition of PDE5 activity (SPA, [3H]cGMP, platelet lysate); format: biochemical; conditions: 0.5 μM cGMP, binned: below 8 / between 8 and 9, read-out: PDE5 inhibitory values measured as −logIC50 (converted)
T2 construct: from tissue; host or cells: human platelets from fresh donor blood (platelet lysate)
Experimental: As a source for human PDE5, platelets were used. For that purpose, 150 ml fresh blood from human donors anticoagulated with citrate [final concentration 0.3% (w/v)] was centrifuged at 200 g for 10 min to obtain the so-called platelet-rich-plasma (PRP) as a supernatant. 1/10 volume of ACD solution (85 mM Na3-citrate, 111 mM D-glucose, 71 mM citric acid, pH 4.4) was added to 9/10 volume of PRP. After centrifugation (1,400 g, 10 min) the cell pellet was resuspended in 3 ml homogenization buffer (NaCl 140 mM, KCl 3.8 mM, EGTA (ethylene glycol tetraacetic acid) 1 mM, MgCl2 1 mM, Tris-HCl 20 mM, beta-mercaptoethanol 1 mM, pH 8.2) plus protease-inhibitor mix resulting in final concentrations of 0.5 mM Pefablock (Roche), 10 μM Leupeptin, 5 μM Trypsine inhibitor, 2 mM Benzamidin and 10 μM Pepstatin A. The suspension was sonicated and thereafter centrifuged for 15 min at 10,000 g. The resulting supernatant (platelet lysate) was used for enzymatic assays.
PDE5 activities were measured in a 96-well platform using SPA (scintillation proximity assay) yttrium silicate beads (RPNQ1050 from GE Healthcare). In a first step the PDE activity operated hydrolysis of either [^3H] cGMP (substrate) into [^3H] 5′GMP. In a second step substrate and product were distinguished following addition of SPA yttrium silicate beads. Indeed, in the presence of zinc sulphate the linear [^3H] […] Close proximity of bound [^3H] […] The test volume was 100 μl and contained 20 mM Tris buffer (pH 7.4), 0.1 mg of BSA (bovine serum albumin)/ml, 5 mM Mg^2+, 1 μM motapizone (PDE3 Inhibitor), 10 nM PDE2 inhibitor 2-(3,4-dimethoxybenzyl)-7-[(1R,2R)-2-hydroxy-1-(2-phenylethyl)propyl]-5-methylimidazo[5,1-f][1,2,4]triazin-4(3H)-one, 0.5 μM cGMP (cyclic guanosine monophosphate) (including about 50,000 cpm of [3H]cGMP as a tracer) (substrate), 1 μl of the respective compound dilution in dimethylsulfoxide (DMSO) and sufficient PDE5-containing platelet lysat (10,000×g supernatant, see above) to ensure that 10-20% of the cGMP was converted under the said experimental conditions. […] After a preincubation of 5 min at 37° C., the reaction was commenced by adding the substrate (cGMP) and the assay was incubated for a further 15 min. The reaction was terminated by adding SPA beads (50 μl). In agreement with the manufacturer's instructions, the SPA beads had previously been resuspended in water, but were then diluted 1:3 (v/v) in water. This diluted solution also contained 3 mM 8-methoxymethyl-3-isobutyl-1-methylxanthine (IBMX) to ensure a complete block of PDE activity. Once the beads were sedimented (>30 min), the MTP's were analyzed in commercially available luminescence detection devices. The corresponding IC50 values of the compounds for inhibition of PDE activity were determined from the concentration-effect curves by means of non-linear regression.
For the following compounds PDE5 inhibitory values [measured as −logIC50 (mol/l)] below 8 and between 8 and 9 have been determined. The numbers of the compounds correspond to the numbers of the examples.

T1 sequence (Q07343 whole entry): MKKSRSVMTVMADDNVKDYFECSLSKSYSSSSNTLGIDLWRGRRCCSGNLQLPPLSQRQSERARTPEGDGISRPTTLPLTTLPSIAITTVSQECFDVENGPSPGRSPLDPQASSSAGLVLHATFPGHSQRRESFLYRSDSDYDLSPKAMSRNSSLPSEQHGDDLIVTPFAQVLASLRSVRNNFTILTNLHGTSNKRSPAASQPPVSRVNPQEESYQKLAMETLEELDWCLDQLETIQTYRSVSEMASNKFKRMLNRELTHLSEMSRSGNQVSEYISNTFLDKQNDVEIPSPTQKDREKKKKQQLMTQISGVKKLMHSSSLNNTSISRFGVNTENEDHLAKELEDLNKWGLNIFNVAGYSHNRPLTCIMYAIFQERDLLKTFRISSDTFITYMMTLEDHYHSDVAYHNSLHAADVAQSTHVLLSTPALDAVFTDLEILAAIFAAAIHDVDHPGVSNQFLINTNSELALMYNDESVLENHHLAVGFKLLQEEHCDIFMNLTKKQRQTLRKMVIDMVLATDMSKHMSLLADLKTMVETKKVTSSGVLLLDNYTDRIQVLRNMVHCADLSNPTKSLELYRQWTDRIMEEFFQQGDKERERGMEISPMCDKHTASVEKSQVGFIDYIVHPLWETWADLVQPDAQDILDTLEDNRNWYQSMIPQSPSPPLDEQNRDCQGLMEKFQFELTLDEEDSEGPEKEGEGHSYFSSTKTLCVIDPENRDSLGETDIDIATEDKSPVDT

Compound	IC50 (PDE4B1)	IC50 (human PDE5)
CCOc1cc2c(cc1OC)C(c1cccc(C(=O)N3CCC(n4c(=O)c5sc(-c6ccc7c(c6)OCO7)cc5n(Cc5ccc(OC)c(F)c5)c4=O)CC3)c1)=N[C@@H]1CCSC[C@H]21 [Example 20, 6-(1,3-benzodioxol-5-yl)-3-[1-({3-[(4aR,10bR)-9-ethoxy-8-methoxy-3,4,4a,10b-tetrahydro-1H-thiopyrano[4,3-c]isoquinolin-6-yl]phenyl}carbonyl)piperidin-4-yl]-1-(3-fluoro-4-methoxybenzyl)thieno[3,2-d]pyrimidine-2,4(1H,3H)-dione]	> 0.01 µM	0.001 to 0.01 µM
CCOc1cc2c(cc1OC)C(c1cccc(C(=O)N3CCC(n4c(=O)c5sc(-c6ccccc6)cc5n(Cc5cc(F)c(OC)c(F)c5)c4=O)CC3)c1)=N[C@@H]1CCSC[C@H]21 [Example 21, 1-(3,5-difluoro-4-methoxybenzyl)-3-[1-({3-[(4aR,10bR)-9-ethoxy-8-methoxy-3,4,4a,10b-tetrahydro-1H-thiopyrano[4,3-c]isoquinolin-6-yl]phenyl}carbonyl)piperidin-4-yl]-6-phenylthieno[3,2-d]pyrimidine-2,4(1H,3H)-dione]	> 0.01 µM	0.001 to 0.01 µM
CCOc1cc2c(cc1OC)C(c1ccc(C(=O)N3CCC(n4c(=O)c5sc(-c6ccc(F)cc6C)cc5n(Cc5ccc(OC)c(F)c5)c4=O)CC3)cc1)=N[C@@H]1CCSC[C@H]21 [Example 18, 3-[1-({4-[(4aR,10bR)-9-ethoxy-8-methoxy-3,4,4a,10b-tetrahydro-1H-thiopyrano[4,3-c]isoquinolin-6-yl]phenyl}carbonyl)piperidin-4-yl]-1-(3-fluoro-4-methoxybenzyl)-6-(4-fluoro-2-methylphenyl)thieno[3,2-d]pyrimidine-2,4(1H,3H)-dione]	> 0.01 µM	0.001 to 0.01 µM

Now from value to molecule:

IC50 (PDE4B1)	IC50 (human PDE5)	Compound
0.001 to 0.01 µM	0.001 to 0.01 µM	CCOc1cc2c(cc1OC)C(c1ccc(C(=O)N3CCC(n4c(=O)c5sc(-c6ccccc6)cc5n(Cc5ccc(OC)c(F)c5F)c4=O)CC3)cc1)=N[C@@H]1CCSC[C@H]21 [Example 4, 1-(2,3-difluoro-4-methoxybenzyl)-3-[1-({4-[(4aR,10bR)-9-ethoxy-8-methoxy-3,4,4a,10b-tetrahydro-1H-thiopyrano[4,3-c]isoquinolin-6-yl]phenyl}carbonyl)piperidin-4-yl]-6-phenylthieno[3,2-d]pyrimidine-2,4(1H,3H)-dione]
0.001 to 0.01 µM	0.001 to 0.01 µM	CCOc1cc2c(cc1OC)C(c1ccc(C(=O)N3CCC(n4c(=O)c5sc(-c6ccccc6)cc5n(Cc5cc(OC)c(OC)cc5F)c4=O)CC3)cc1)=N[C@@H]1CCSC[C@H]21 [Example 5, 3-[1-({4-[(4aR,10bR)-9-ethoxy-8-methoxy-3,4,4a,10b-tetrahydro-1H-thiopyrano[4,3-c]isoquinolin-6-yl]phenyl}carbonyl)piperidin-4-yl]-1-(2-fluoro-4,5-dimethoxybenzyl)-6-phenylthieno[3,2-d]pyrimidine-2,4(1H,3H)-dione]
0.001 to 0.01 µM	0.001 to 0.01 µM	CCOc1cc2c(cc1OC)C(c1ccc(C(=O)N3CCC(n4c(=O)c5sc(-c6ccccc6OC)cc5n(Cc5ccc(OC)c(F)c5)c4=O)CC3)cc1)=N[C@@H]1CCSC[C@H]21 [Example 19, 3-[1-({4-[(4aR,10bR)-9-ethoxy-8-methoxy-3,4,4a,10b-tetrahydro-1H-thiopyrano[4,3-c]isoquinolin-6-yl]phenyl}carbonyl)piperidin-4-yl]-1-(3-fluoro-4-methoxybenzyl)-6-(2-methoxyphenyl)thieno[3,2-d]pyrimidine-2,4(1H,3H)-dione]
0.001 to 0.01 µM	0.001 to 0.01 µM	CCOc1cc2c(cc1OC)C(c1ccc(C(=O)N3CCC(n4c(=O)c5sc(-c6ccccc6F)cc5n(Cc5ccc(OC)c(F)c5)c4=O)CC3)cc1)=N[C@@H]1CCSC[C@H]21 [Example 12, 3-[1-({4-[(4aR,10bR)-9-ethoxy-8-methoxy-3,4,4a,10b-tetrahydro-1H-thiopyrano[4,3-c]isoquinolin-6-yl]phenyl}carbonyl)piperidin-4-yl]-1-(3-fluoro-4-methoxybenzyl)-6-(2-fluorophenyl)thieno[3,2-d]pyrimidine-2,4(1H,3H)-dione]
